Data from EP0220873B1, “Fused bicyclic imides with psychotropic activity” (priority 1985, dated 1987).
Where a name gives a salt, the structure may show the parent alone. One block for each molecule: values may come before it.

Legend:
avoidance responding [1] = assay: conditioned avoidance (shelf-jump response) test; assay type: in vivo, Male CD rats; conditions: for Active at mg/kg: i.p.
Experimental: Another test designed to determine the potential antipsychotic activity of the compounds of the invention is the conditioned avoidance (shelf-jump response) test.
This test is carried out as follows: Male CD rats (Charles River) maintained at approximately 400-450 gm body weight are used. Previously trained rats are placed in plexiglass experimental chambers divided into two sections; a main chamber (10 1/2" x 6 3/4" x 11 7/8" high) and an elevated chamber or shelf (5 7/8" x 6 7/8" x 5 3/4"). A moveable wall, controlled by a motor, determines whether the rat has access to the shelf at any time during the experiment. The experimental chamber also contains a house light and sonalert. A steel grid floor in the main chamber is wired for presentation of electric shock. Each trial consists of a fifteen-second warning tone (conditioned stimulus), continuing for an additional fifteen seconds accompanied by electric shock, (unconditioned stimulus). A response (jumping onto the exposed shelf of the upper chamber) occurring during the initial fifteen-second warning tone is considered an avoidance response, while a response occurring during shock delivery is considered an escape response. Trials are presented on a fixed interval schedule of one minute. The session consists of thirty-six trials. Animals are run twice weekly with control sessions always preceding a drug run, and with at least one day intervening. Compounds are administered i.p. or p.o. at appropriate pre-treatment times to a minimum of five rats at each dose level over a range of doses.
The following experimental parameters are recorded by computer: (1) the number of avoidance responses, (2) the number of escape responses, and (3) the number of trials in which no response occurred.
(§1) Response counts are summed over all subjects at a given dose. […] This number is expressed as a percentage of the total trials. Control performance is arbitrarily assigned a value of 100% for avoidance and the dose calculated to produce a 50% block in avoidance responding (AB₅₀) is obtained from a dose-effect regression line fitted by the method of least squares. Potential antipsychotic compounds suppress avoidance responding and increase escape responding.

[2] = target: T1, limbic D-2 dopamine receptor (Rattus norvegicus, UniProt P61169); assay: biochemical; assay type: binding, rats; conditions: for Ki: Table 1, 0.3 nM 3H-spiroperidol, rat limbic brain tissue, read-out: Limbic D-2 Binding (KinM); for inhibition at 1 µM: read-out: Limbic D-2 Binding, % inhibition at 1 µM
T1 construct: Limbic brain tissue (nucleus accumbens, septal area, olfactory tubercle) is dissected; from tissue; host or cells: rat limbic brain tissue (nucleus accumbens, septal area, olfactory tubercle) homogenate
T1 sequence (P61169 whole entry): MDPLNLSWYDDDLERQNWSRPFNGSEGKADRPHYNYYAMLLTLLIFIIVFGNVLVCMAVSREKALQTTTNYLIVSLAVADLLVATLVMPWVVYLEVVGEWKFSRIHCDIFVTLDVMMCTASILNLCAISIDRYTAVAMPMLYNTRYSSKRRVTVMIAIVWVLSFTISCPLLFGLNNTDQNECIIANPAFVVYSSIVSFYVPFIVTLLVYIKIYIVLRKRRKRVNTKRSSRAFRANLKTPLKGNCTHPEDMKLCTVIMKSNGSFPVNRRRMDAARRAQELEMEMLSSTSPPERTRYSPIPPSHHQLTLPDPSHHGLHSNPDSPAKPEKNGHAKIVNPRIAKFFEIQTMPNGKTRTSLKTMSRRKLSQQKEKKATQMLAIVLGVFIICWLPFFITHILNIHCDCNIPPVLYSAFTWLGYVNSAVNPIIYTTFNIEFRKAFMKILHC

avoidance responding [3] = assay: conditioned avoidance (discrete trial) test; assay type: in vivo, Male CD rats; conditions: for ED50: Rattus norvegicus
Experimental: The antipsychotic activity of the compounds of the invention is assessed via the conditioned avoidance (discrete trial) test. This test has excellent clinical correlation for antipsychotic activity.
The test is carried out as follows: Male CD rats (Charles River) maintained at approximately 400-450 gm body weight are used. Rats trained previously are placed in plexiglass experimental chambers equipped with a response lever, house light, and sonalert. A steel grid floor is wired for presentation of electric shock. Each trial consists of a fifteen-second warning tone (conditioned stimulus), continuing for an additional fifteen seconds accompanied by electric shock, (unconditioned stimulus). The rat can terminate a trial at any point by depression of the response lever. As response during the initial fifteen-second warning tone ends the trial before shock delivery and is considered avoidance response, while a response occurring during shock delivery is an escape response. Trials are presented on a variable interval schedule of two minutes. The session consists of sixty trials. Animals are run two to three times weekly with control sessions always preceding a drug run, and with at least one day intervening, compounds are administered i.p. or p.o. at appropriate pre-treatment times to a minimum of five to six rats at each dose level over a range of doses.
as §1

[4] = ip, standard compounds, dose producing 50% block in avoidance responding, read-out: AB50 (the source's name)

Ki [2]: 440 nM
Molecule: O=C1C2C3CCCCC(CC3)C2C(=O)N1CCCCN1CCN(c2cncc(Cl)n2)CC1 (centres unmarked) [Example 14, hydrochloride, hemihydrate]
Active at mg/kg (avoidance responding [1]): 40 (i.p.) mg/kg

Molecule: Cl.O.O=C1C2C3C=CC(CCC3)C2C(=O)N1CCCCN1CCN(c2cncc(Cl)n2)CC1 (centres unmarked) [Example 22, 2-[4-[4-(6-Chloro-2-pyrazinyl)-1-piperazinyl]butyl]-4,5,6,7,8,8a-hexahydro-4,8-ethenocyclohepta[c]pyrrole-1,3(2H,3aH)-dione, hydrochloride, hydrate]
Active at mg/kg (avoidance responding [1]): 40 (i.p.) mg/kg
ED50 (avoidance responding [3]; po, read-out: Active at mg/kg (AB50 value)): 68.4 mg/kg
inhibition at 1 µM [2]: 43%

Molecule: 2-[4-[4-(2-Pyrimidinyl)-1-piperazinyl]butyl]octahydro-4,7ethano-1H-cyclobut[f]isoindole-1,3-(2H)-dione, dihydrochloride, sesquihydrate [Example 6]
Active at mg/kg (avoidance responding [1]): 40 (i.p.) mg/kg
Active at mg/kg (avoidance responding [3]; p.o., active dose, no AB50): 40 (p.o.) mg/kg

Ki [2]: 413 nM
Molecule: O=C1C2C3C=CC(C4CCC34)C2C(=O)N1CCCCN1CCN(c2cncc(Cl)n2)CC1 (centres unmarked) [Example 15, 2-[4-[4-(6-Chloro-2-pyrazinyl)-1-piperazinyl]butyl]-octahydro-4,7-etheno-1H-cyclobut[f]isoindol-1,3-(2H)-dione, hydrochloride]
Active at mg/kg (avoidance responding [1]): 40 (i.p.) mg/kg

Molecule: CSc1ccc2c(c1)N(CCC1CCCCN1C)c1ccccc1S2 (centres unmarked) [Thioridazine, reference compound]
ED50 (avoidance responding [3]; [4]): 8.61 mg/kg

Molecule: O=C1CC2(CCCC2)CC(=O)N1CCCCN1CCN(c2ncccn2)CC1 [Buspirone, 8-[4-[4-(2-pyrimidinyl)-1-piperazinyl]butyl]-8-azaspiro[4.5]decane-7,9-dione, reference compound]
ED50 (avoidance responding [1]; Rattus norvegicus, ip, standard compounds, read-out: AB50 (the source's name)): 9.94 mg/kg

Molecule: Cl.Cl.O.O=C1C2C3C=CC(C4C=CC43)C2C(=O)N1CCCCN1CCN(c2ccc(C(F)(F)F)cn2)CC1 (centres unmarked) [Example 28, 3a,4,4a,6a,7,7a-Hexahydro-2-[4-[4-(5-trifluoromethyl-2-pyridinyl)-1-piperazinyl]-butyl]-4,7-etheno-1H-cyclobut[f]isoindole-1,3(2H)-dione, dihydrochloride, hydrate]
Active at mg/kg (avoidance responding [1]): 40 (i.p.) mg/kg

Molecule: O=C1C2C3C=CC(C4CC34)C2C(=O)N1CCCCN1CCN(c2ccc(Cl)nn2)CC1 (centres unmarked) [Example 9, 2-[4-[4-(6-Chloro-3-pyridazinyl)-1-piperazinyl]butyl]hexahydro-4,6-ethenocycloprop[f]isoindole-1,3-(2H,3H)-dione, hydrochloride]
Active at mg/kg (avoidance responding [1]): 40 (i.p.) mg/kg

Molecule: O=C1C2C3CCC(C4CCC43)C2C(=O)N1CCCCN1CCN(c2cncc(Cl)n2)CC1 (centres unmarked) [Example 5, 2-[4-[4-(6-Chloro-2-pyrazinyl-1-piperazinyl]butyl]octahydroo-4,7-ethano-1H-cyclobut[f]isoindole-1,3-(2H)-dione, hydrochloride, hemihydrate]
Active at mg/kg (avoidance responding [1]): 40 (i.p.) mg/kg

Molecule: Cl.O=C1C2C3CCC(C4CC43)C2C(=O)N1CCCCN1CCN(c2nccnc2Cl)CC1 (centres unmarked) [Example 26, 2-[4-[4-(3-Chloro-2-pyrazinyl)-1-piperazinyl]butyl]hexahydro-4,6-ethanocycloprop[f]isoindole-1,3(2H,3aH)-dione, hydrochloride]
Active at mg/kg (avoidance responding [1]): 40 (i.p.) mg/kg
inhibition at 1 µM [2]: 75%

Molecule: O=C(CCCN1CCC2(CC1)C(=O)NCN2c1ccccc1)c1ccc(F)cc1 [Spiperone, reference compound]
ED50 (avoidance responding [3]; [4]): 0.13 mg/kg

Molecule: O=C1C2C3C=CC(C4CCC34)C2C(=O)N1CCCCN1CCN(c2nccnc2Cl)CC1 (centres unmarked) [Example 10, 2-[4-[4-(3-Chloro-2-pyrazinyl)-1-piperazinyl]butyl] octahydro-4,7-etheno-1H-cyclobut[f]isoindole-1,3(2H)--dione, dihydrochloride, hydrate]
Active at mg/kg (avoidance responding [1]): 40 (i.p.) mg/kg

Molecule: O=C1C2C3C=CC(C4C=CC43)C2C(=O)N1CCCCN1CCN(c2ccc(Cl)nn2)CC1 (centres unmarked) [Example 11, 3a,4,4a,6a,7,7a-Hexahydro-2-[4-[4-(6-chloro-3-pyridazinyl)-1-piperazinyl]butyl]4,7-etheno-1H--cyclobut[f]isoindole-1,3(2H)-dione, hydrochloride, hydrate]
Active at mg/kg (avoidance responding [1]): 40 (i.p.) mg/kg

Molecule: Cl.O.O=C1C2C3C=CC(CCCC3)C2C(=O)N1CCCCN1CCN(c2nccnc2Cl)CC1 (centres unmarked) [Example 20, 2-[4-[4-(3-Chloro-2-pyrazinyl)-1-piperazinyl]butyl]octahydro-4,9-etheno-1H-cycloocta[c]pyrrole-1,3(2H)-dione, hydrochloride, hydrate]
Active at mg/kg (avoidance responding [1]): 40 (i.p.) mg/kg
inhibition at 1 µM [2]: 78%

Molecule: Cl.Cl.O=C1C2C3CCCC(CC3)C2C(=O)N1CCCCN1CCN(c2ncccn2)CC1 (centres unmarked) [Example 29, 4,5,6,7,8,8a-Hexahydro-2-[4-[4-(2-pyrimidinyl)-1-piperazinyl]butyl]-4,8-ethanocyclohepta[c]pyrrole-1,3(2H,3aH)-dione, dihydrochloride]
Active at mg/kg (avoidance responding [1]): 40 (i.p.) mg/kg

inhibition at 1 µM [2]: 19%
Molecule: O=C1C2C3C=CC(C3)C2C(=O)N1CCCCN1CCN(c2ccc(Cl)nn2)CC1 (centres unmarked) [Example 17, 2-[4-[4-(6-Chloro-3-pyridazinyl-1-piperazinyl]butyl]-3a,4,7,7a-tetrahydro-4,7-methano-1H-isoindole-1,3-(2H)-dione, hydrochloride, dihydrate]
Active at mg/kg (avoidance responding [1]): 40 (i.p.) mg/kg

Molecule: O=C1C2C3C=CC(C4C=CC43)C2C(=O)N1CCCCN1CCN(c2cncc(Cl)n2)CC1 (centres unmarked) [Example 4, 3a,4,4a,6a,7,7a-Hexahydro-2-[4-[4-(6-chloro-2-pyrazinyl)-1-piperazinyl]butyl]-4,7-etheno-1H-cyclobut[f]isoindole-1,3(2H)-dione, dihydrochloride, sesquihydrate]
Active at mg/kg (avoidance responding [1]): 40 (i.p.) mg/kg

Molecule: O=C(CCCN1CCC(O)(c2ccc(Cl)cc2)CC1)c1ccc(F)cc1 [Haloperidol, reference compound]
ED50 (avoidance responding [3]; [4]): 0.18 mg/kg

Ki [2]: 54 nM
Molecule: Cl.O.O=C1C2C3C=CC(C4CC34)C2C(=O)N1CCCCN1CCN(c2nccnc2Cl)CC1 (centres unmarked) [Example 19, 2-[4-[4-(3-Chloro-2-pyrazinyl)-1-piperazinyl]butyl]hexahydro-4,6-ethenocycloprop[f]isoindole-1,3(2H,3aH)-dione, hydrochloride, hydrate]
Active at mg/kg (avoidance responding [1]): 40 (i.p.) mg/kg

Molecule: Cl.O=C1C2C3CCC(C4CC43)C2C(=O)N1CCCCN1CCN(c2cncc(Cl)n2)CC1 (centres unmarked) [Example 25, 2-[4-[4-(6-Chloro-2-pyrazinyl)-1-piperazinyl]butyl]hexahydro-4,6-ethanocycloprop[f]isoindole-1,3(2H,3aH)-dione, hydrochloride]
Active at mg/kg (avoidance responding [1]): 40 (i.p.) mg/kg
inhibition at 1 µM [2]: 49%

Molecule: O=C1C2C3C=CC(C4CC34)C2C(=O)N1CCCCN1CCN(c2ncccn2)CC1 (centres unmarked) [Example 2, 4,4a,5,5a,6,6a-Hexahydro-2-[4-[4-(2-pyrimidinyl)-1-piperazinyl]butyl]-4,6-ethenocycloprop[f]isoindole-1,3-(2H,3aH)-dione,dihydrochloride, hydrate]
Active at mg/kg (avoidance responding [1]): 40 (i.p.) mg/kg

Molecule: O=C1C2C3C=CC(C4C=CC43)C2C(=O)N1CCCCN1CCN(c2nccnc2Cl)CC1 (centres unmarked) [Example 12, 3a,4,4a,6a,7,7a-Hexahydro-2-[4-[4-(3-chloro-2-pyrazinyl-1-piperazinyl]butyl]4,7-etheno-1H-cyclobut[f]isoindole-1,3(2H)-dione, hydrochloride, dihydrate]
Active at mg/kg (avoidance responding [1]): 40 (i.p.) mg/kg
